Experimental data reported in ChEMBL document CHEMBL5352433, “Design, synthesis, and biological evaluation of low-toxic lappaconitine derivatives as potential analgesics” (Eur J Med Chem, 2022).

The compounds below were run on Mus musculus (assay: Analgesic activity against acetic acid-induced Kunming writhing mouse model assessed as inhibition of writhing at 10 mg/kg, sc pretreated with compound for 15 mins followed by acetic acid addition and measured after 15 mins relative to control). Settings: 0.5 h, time 30 min.
Format: functional

Row | SMILES | inhibition in vivo at 10 mg/kg [%]
1 | CCN1C[C@]2(OC(=O)c3ccccc3NC(=O)c3cccc(C#N)c3)CC[C@H](OC)[C@]34C1[C@H](C[C@H]23)[C@@]1(O)C[C@H](OC)[C@H]2C[C@@H]4[C@]1(O)[C@H]2OC | 10.7
2 | CCN1C[C@]2(OC(=O)c3ccccc3NS(=O)(=O)c3cccc4cccnc34)CC[C@H](OC)[C@]34C1[C@H](C[C@H]23)[C@@]1(O)C[C@H](OC)[C@H]2C[C@@H]4[C@]1(O)[C@H]2OC | 42.4
3 | CCN1C[C@]2(OC(=O)c3ccccc3NS(=O)(=O)c3ccc(N(C)C)cc3)CC[C@H](OC)[C@]34C1[C@H](C[C@H]23)[C@@]1(O)C[C@H](OC)[C@H]2C[C@@H]4[C@]1(O)[C@H]2OC | 23
4 | CCN1C[C@]2(OC(=O)c3ccccc3NC(=O)c3ccccc3F)CC[C@H](OC)[C@]34C1[C@H](C[C@H]23)[C@@]1(O)C[C@H](OC)[C@H]2C[C@@H]4[C@]1(O)[C@H]2OC | 17.7
5 | CCN1C[C@]2(OC(=O)c3ccccc3NS(C)(=O)=O)CC[C@H](OC)[C@]34C1[C@H](C[C@H]23)[C@@]1(O)C[C@H](OC)[C@H]2C[C@@H]4[C@]1(O)[C@H]2OC | 22.8
6 | CCN1C[C@]2(OC(=O)c3ccccc3NS(=O)(=O)c3ccc(OC)cc3OC)CC[C@H](OC)[C@]34C1[C@H](C[C@H]23)[C@@]1(O)C[C@H](OC)[C@H]2C[C@@H]4[C@]1(O)[C@H]2OC | 34.9
7 | CCN1C[C@]2(OC(=O)c3ccccc3NS(=O)(=O)c3cccs3)CC[C@H](OC)[C@]34C1[C@H](C[C@H]23)[C@@]1(O)C[C@H](OC)[C@H]2C[C@@H]4[C@]1(O)[C@H]2OC | 1
8 | CCN1C[C@]2(OC(=O)c3ccccc3NC(=O)c3cccc(Cl)c3)CC[C@H](OC)[C@]34C1[C@H](C[C@H]23)[C@@]1(O)C[C@H](OC)[C@H]2C[C@@H]4[C@]1(O)[C@H]2OC | 17.5
9 | CCN1C[C@]2(OC(=O)c3ccccc3NS(=O)(=O)CCCCl)CC[C@H](OC)[C@]34C1[C@H](C[C@H]23)[C@@]1(O)C[C@H](OC)[C@H]2C[C@@H]4[C@]1(O)[C@H]2OC | 32.1
10 | CCN1C[C@]2(OC(=O)c3ccccc3NC(=O)C3CCCCC3)CC[C@H](OC)[C@]34C1[C@H](C[C@H]23)[C@@]1(O)C[C@H](OC)[C@H]2C[C@@H]4[C@]1(O)[C@H]2OC | 34.5
11 | CCN1C[C@]2(OC(=O)c3ccccc3NS(=O)(=O)c3ccccc3Cl)CC[C@H](OC)[C@]34C1[C@H](C[C@H]23)[C@@]1(O)C[C@H](OC)[C@H]2C[C@@H]4[C@]1(O)[C@H]2OC | 64.3
12 | CCN1C[C@]2(OC(=O)c3ccccc3NS(=O)(=O)CC)CC[C@H](OC)[C@]34C1[C@H](C[C@H]23)[C@@]1(O)C[C@H](OC)[C@H]2C[C@@H]4[C@]1(O)[C@H]2OC | 4
13 | CCN1C[C@]2(OC(=O)c3ccccc3NS(=O)(=O)c3ccc(F)cc3F)CC[C@H](OC)[C@]34C1[C@H](C[C@H]23)[C@@]1(O)C[C@H](OC)[C@H]2C[C@@H]4[C@]1(O)[C@H]2OC | 27.2
14 | CCN1C[C@]2(OC(=O)c3ccccc3NC(=O)c3ccc(OC(F)(F)F)cc3)CC[C@H](OC)[C@]34C1[C@H](C[C@H]23)[C@@]1(O)C[C@H](OC)[C@H]2C[C@@H]4[C@]1(O)[C@H]2OC | 10
15 | CCN1C[C@]2(OC(=O)c3ccccc3NS(=O)(=O)c3cccc(OC)c3)CC[C@H](OC)[C@]34C1[C@H](C[C@H]23)[C@@]1(O)C[C@H](OC)[C@H]2C[C@@H]4[C@]1(O)[C@H]2OC | 37.1
16 | CCN1C[C@]2(OC(=O)c3ccccc3NC(=O)c3ccc(C#N)cc3)CC[C@H](OC)[C@]34C1[C@H](C[C@H]23)[C@@]1(O)C[C@H](OC)[C@H]2C[C@@H]4[C@]1(O)[C@H]2OC | 31.5
17 | CCN1C[C@]2(OC(=O)c3ccccc3NS(=O)(=O)c3cccc4c(N(C)C)cccc34)CC[C@H](OC)[C@]34C1[C@H](C[C@H]23)[C@@]1(O)C[C@H](OC)[C@H]2C[C@@H]4[C@]1(O)[C@H]2OC | 42.5
18 | CCN1C[C@]2(OC(=O)c3ccccc3NS(=O)(=O)c3cc(Cl)ccc3OC)CC[C@H](OC)[C@]34C1[C@H](C[C@H]23)[C@@]1(O)C[C@H](OC)[C@H]2C[C@@H]4[C@]1(O)[C@H]2OC | 43.2
19 | CCN1C[C@]2(OC(=O)c3ccccc3NS(=O)(=O)c3ccc(C)cc3)CC[C@H](OC)[C@]34C1[C@H](C[C@H]23)[C@@]1(O)C[C@H](OC)[C@H]2C[C@@H]4[C@]1(O)[C@H]2OC | 27.7
20 | CCN1C[C@]2(OC(=O)c3ccccc3NC(=O)C3CCOC3)CC[C@H](OC)[C@]34C1[C@H](C[C@H]23)[C@@]1(O)C[C@H](OC)[C@H]2C[C@@H]4[C@]1(O)[C@H]2OC (stereo not given in full) | 34

Row | SMILES | inhibition in vivo at 10 mg/kg [%]
21 | CCN1C[C@]2(OC(=O)c3ccccc3NS(=O)(=O)c3cccc(F)c3)CC[C@H](OC)[C@]34C1[C@H](C[C@H]23)[C@@]1(O)C[C@H](OC)[C@H]2C[C@@H]4[C@]1(O)[C@H]2OC | 50.2
22 | CCN1C[C@]2(OC(=O)c3ccccc3NC(=O)c3cccc(Br)c3)CC[C@H](OC)[C@]34C1[C@H](C[C@H]23)[C@@]1(O)C[C@H](OC)[C@H]2C[C@@H]4[C@]1(O)[C@H]2OC | 3.4
23 | CCN1C[C@]2(OC(=O)c3ccccc3NS(=O)(=O)c3ccc(OC)c(OC)c3)CC[C@H](OC)[C@]34C1[C@H](C[C@H]23)[C@@]1(O)C[C@H](OC)[C@H]2C[C@@H]4[C@]1(O)[C@H]2OC | 13.7
24 | CCN1C[C@]2(OC(=O)c3ccccc3NC(=O)c3ccc(OC)c(OC)c3)CC[C@H](OC)[C@]34C1[C@H](C[C@H]23)[C@@]1(O)C[C@H](OC)[C@H]2C[C@@H]4[C@]1(O)[C@H]2OC | 34.6
25 | CCN1C[C@]2(OC(=O)c3ccccc3NC(=O)c3ccc(S(C)(=O)=O)cc3)CC[C@H](OC)[C@]34C1[C@H](C[C@H]23)[C@@]1(O)C[C@H](OC)[C@H]2C[C@@H]4[C@]1(O)[C@H]2OC | 8.4
26 | CCN1C[C@]2(OC(=O)c3ccccc3NC(=O)c3ccc(Br)cc3)CC[C@H](OC)[C@]34C1[C@H](C[C@H]23)[C@@]1(O)C[C@H](OC)[C@H]2C[C@@H]4[C@]1(O)[C@H]2OC | 39.4
27 | CCCCCCC(=O)Nc1ccccc1C(=O)O[C@@]12CC[C@H](OC)[C@]34C([C@H](C[C@H]13)[C@@]1(O)C[C@H](OC)[C@H]3C[C@@H]4[C@]1(O)[C@H]3OC)N(CC)C2 | 54.2
28 | CCN1C[C@]2(OC(=O)c3ccccc3NC(=O)c3cccc(F)c3)CC[C@H](OC)[C@]34C1[C@H](C[C@H]23)[C@@]1(O)C[C@H](OC)[C@H]2C[C@@H]4[C@]1(O)[C@H]2OC | 27.5
29 | CCN1C[C@]2(OC(=O)c3ccccc3NS(=O)(=O)c3ccc(-c4ccccc4)cc3)CC[C@H](OC)[C@]34C1[C@H](C[C@H]23)[C@@]1(O)C[C@H](OC)[C@H]2C[C@@H]4[C@]1(O)[C@H]2OC | 16.1
30 | CCCCc1ccc(C(=O)Nc2ccccc2C(=O)O[C@@]23CC[C@H](OC)[C@]45C([C@H](C[C@H]24)[C@@]2(O)C[C@H](OC)[C@H]4C[C@@H]5[C@]2(O)[C@H]4OC)N(CC)C3)cc1 | 28.2
31 | CCN1C[C@]2(OC(=O)c3ccccc3NC(=O)c3ccc(Br)s3)CC[C@H](OC)[C@]34C1[C@H](C[C@H]23)[C@@]1(O)C[C@H](OC)[C@H]2C[C@@H]4[C@]1(O)[C@H]2OC | 12.8
32 | CCN1C[C@]2(OC(=O)c3ccccc3NS(=O)(=O)c3ccc(C(F)(F)F)cc3)CC[C@H](OC)[C@]34C1[C@H](C[C@H]23)[C@@]1(O)C[C@H](OC)[C@H]2C[C@@H]4[C@]1(O)[C@H]2OC | 19.4
33 | CCN1C[C@]2(OC(=O)c3ccccc3NS(=O)(=O)c3cccc4ccccc34)CC[C@H](OC)[C@]34C1[C@H](C[C@H]23)[C@@]1(O)C[C@H](OC)[C@H]2C[C@@H]4[C@]1(O)[C@H]2OC | 49.3
34 | CCN1C[C@]2(OC(=O)c3ccccc3NS(=O)(=O)c3cc(F)ccc3F)CC[C@H](OC)[C@]34C1[C@H](C[C@H]23)[C@@]1(O)C[C@H](OC)[C@H]2C[C@@H]4[C@]1(O)[C@H]2OC | 45.1
35 | CCN1C[C@]2(OC(=O)c3ccccc3NC(=O)c3cccc(OC)c3)CC[C@H](OC)[C@]34C1[C@H](C[C@H]23)[C@@]1(O)C[C@H](OC)[C@H]2C[C@@H]4[C@]1(O)[C@H]2OC | 0
36 | CCN1C[C@]2(OC(=O)c3ccccc3NC(=O)c3ccccc3Br)CC[C@H](OC)[C@]34C1[C@H](C[C@H]23)[C@@]1(O)C[C@H](OC)[C@H]2C[C@@H]4[C@]1(O)[C@H]2OC | 0
37 | CCN1C[C@]2(OC(=O)c3ccccc3NS(=O)(=O)c3ccccc3C#N)CC[C@H](OC)[C@]34C1[C@H](C[C@H]23)[C@@]1(O)C[C@H](OC)[C@H]2C[C@@H]4[C@]1(O)[C@H]2OC | 53.9
38 | CCN1C[C@]2(OC(=O)c3ccccc3NS(=O)(=O)c3cc(F)c(F)cc3F)CC[C@H](OC)[C@]34C1[C@H](C[C@H]23)[C@@]1(O)C[C@H](OC)[C@H]2C[C@@H]4[C@]1(O)[C@H]2OC | 26
39 | CCN1C[C@]2(OC(=O)c3ccccc3NC(=O)c3ccc(Cl)cc3)CC[C@H](OC)[C@]34C1[C@H](C[C@H]23)[C@@]1(O)C[C@H](OC)[C@H]2C[C@@H]4[C@]1(O)[C@H]2OC | 31.6
40 | CCc1ccc(C(=O)Nc2ccccc2C(=O)O[C@@]23CC[C@H](OC)[C@]45C([C@H](C[C@H]24)[C@@]2(O)C[C@H](OC)[C@H]4C[C@@H]5[C@]2(O)[C@H]4OC)N(CC)C3)cc1 | 26.7
